Patent US12668568B2, “Adamantanyl-substituted benzamide compounds and their use as P2X7 receptor antagonists” (The University of Sydney, priority 2018, dated 2026)
“And” between values parts separate entries of the source, which are not always exact repeats. Equal entries are not always repeated.

Assays:
hP2X7R [1] = biological target: T1, hP2X7R (Homo sapiens, UniProt Q99572); test: Calcium influx assay in HEK-hP2X7 cells; assay type: cell-based; conditions: HEK cells expressing hP2X7R, BzATP 100 μM; mean ± standard deviation, n >3
T1 sequence (Q99572 1-595): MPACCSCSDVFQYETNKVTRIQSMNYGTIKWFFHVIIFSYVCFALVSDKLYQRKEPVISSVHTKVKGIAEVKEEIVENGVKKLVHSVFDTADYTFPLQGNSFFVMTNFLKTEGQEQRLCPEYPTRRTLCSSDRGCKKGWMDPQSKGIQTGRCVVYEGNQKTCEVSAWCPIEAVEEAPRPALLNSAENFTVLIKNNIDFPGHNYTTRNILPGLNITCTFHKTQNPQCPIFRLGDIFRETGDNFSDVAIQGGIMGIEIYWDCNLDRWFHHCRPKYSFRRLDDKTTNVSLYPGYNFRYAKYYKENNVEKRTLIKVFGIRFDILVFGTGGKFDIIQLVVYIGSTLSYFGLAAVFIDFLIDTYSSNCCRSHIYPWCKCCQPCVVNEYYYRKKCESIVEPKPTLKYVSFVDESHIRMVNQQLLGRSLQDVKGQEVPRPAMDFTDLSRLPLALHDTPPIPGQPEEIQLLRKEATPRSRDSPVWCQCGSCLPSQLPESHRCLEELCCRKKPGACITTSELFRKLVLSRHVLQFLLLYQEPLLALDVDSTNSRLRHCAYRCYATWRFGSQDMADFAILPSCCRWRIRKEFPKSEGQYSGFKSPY
Method: HEK293T cells transfected with cDNA for the human (HEK-hP2X7) or mouse P2X7 (HEK-mP2X7) receptor (a kind gift from Dr […] Stokes and Prof. Jim Wiley) were cultured in DMEM/F12 with 10% FBS and 500 μg/mL G418 (all from Invitrogen). […] HEK-hP2X7 or HEK-mP2X7 cells were harvested using trypsin (0.05%) with EDTA (0.03%). Cells were loaded with Fluo-4 AM (1 μM) in HBSS buffer at 37° C. for 30 min, inverting every 5 mins. […] Fluorescence was then monitored every 5 s for 5 min total monitoring. […] Data were normalized to the peak response seen with BzATP alone and the basal response seen due to injection of vehicle (see FIG. 3).

hP2X7R [2] = biological target: T1, hP2X7R; test: Radioligand binding assay, displacement of [3H]-Compound 31, HEK-hP2X7 membranes; conditions: displacement of tritium-labeled benzamide 31-t3, HEK cells expressing hP2X7R; mean ± standard deviation, n >3; read-out: Binding affinity Ki
Method: Homogenates were centrifuged at 48 000 g for 20 min at 4° C., the supernatant discarded and the pellet resuspended in Tris HCl 50 mM (pH 7.4 at 4° C.). Two additional spins at 48 000 g followed, discarding the supernatant each time and resuspending the pellet in 50 mM Tris HCl each time. Protein content was determined via bicinchoninic acid (BCA) assay (Pierce Biotechnology Inc., Rockford), the membrane solution supplemented with 0.1% bovine serum albumin (BSA) and stored at −80° C.
The incubation was terminated by rapid filtration through a glass fibre filter (GF/B; Millipore, Ireland), presoaked beforehand with 0.3% PEI) and washed 10 times with 50 mM Tris HCl (4° C.). The filters were then allowed to dry overnight before adding Microscint-0 scintillation cocktail (Perkin Elmer). […] For Kd and Bmax determination the specific binding was calculated (total binding minus non-specific binding) and analyzed using a one-site binding model (hyperbolic). The total binding and non-specific binding were also plotted for comparison (see FIG. 4). […] The extra sum of squares F-test was used to evaluate three potential models to fit the data; a one-site fit (with hill slope constrained to 1), a one-site fit (with hill slope as a variable) and a two-site fit. […] The Koff from dissociation studies was calculated using non-linear regression (exponential model) and then, in combination with the data from association studies, used to calculate the Kon. All data were analyzed using GraphPad Prism 5.

CYP2C19 = biological target: T2, CYP2C19 (Homo sapiens, UniProt P33261); test: Cytochrome profiling CYP2C19 (baculosomes); assay type: in vitro ADME; conditions: probe fluorogenic probe substrate (not named), 10 μM substrate
T2 construct: host or cells: insect cells infected with recombinant baculovirus (microsomes)
T2 sequence (P33261 whole entry): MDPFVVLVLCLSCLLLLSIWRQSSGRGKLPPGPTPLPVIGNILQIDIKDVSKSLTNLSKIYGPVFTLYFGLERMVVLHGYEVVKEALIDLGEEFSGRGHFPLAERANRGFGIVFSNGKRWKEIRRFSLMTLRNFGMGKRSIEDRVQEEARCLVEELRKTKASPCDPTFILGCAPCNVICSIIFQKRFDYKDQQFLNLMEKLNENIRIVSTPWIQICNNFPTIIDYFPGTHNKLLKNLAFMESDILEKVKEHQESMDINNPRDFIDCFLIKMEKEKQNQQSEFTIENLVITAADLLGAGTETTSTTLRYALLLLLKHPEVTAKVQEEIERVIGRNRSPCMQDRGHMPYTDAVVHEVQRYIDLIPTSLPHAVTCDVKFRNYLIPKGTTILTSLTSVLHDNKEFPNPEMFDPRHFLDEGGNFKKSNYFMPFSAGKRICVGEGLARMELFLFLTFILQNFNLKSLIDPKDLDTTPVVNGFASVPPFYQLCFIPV
Text: (§1) Cytochrome P450 (abbreviated CYP, P450 or CYP450) belong to very large and diverse superfamily of haemoproteins which accept both exogenous and endogenous compounds as substrates in enzymatic reactions and play a major role in drug metabolism. Although this class has more than 50 enzymes just 5 of them (CYP1A2, CYP2C9, CYP2C19, CYP2D6 and CYP3A4) are able to metabolise almost 90% of all drugs. Inhibition of these enzymes is one of the major reasons for drug-drug interactions. Consequently, detailed CYP inhibition profiles are a regulatory requirement for all new drugs. Inhibition potencies against the five most relevant CYP isoforms is performed using baculosomes; microsomes prepared from insect cells infected with recombinant baculovirus containing cDNA for a specific human P450 isozyme. The baculosomes are incubated with drug at a concentration of 1 μM in the presence of a probe substrate for 60 minutes at 37° C. The probe is normally metabolised by the baculosomes to produce a fluorescent metabolite. A substrate drug will compete for the isozyme and reduce the metabolism of the probe resulting in a decrease in the fluorescent signal. The percent inhibition due to the presence of the test compound is calculated using the following equation: [formula] • X=fluorescent intensity observed in the presence of test compound • A=fluorescent intensity observed in control • B=fluorescent intensity observed in the presence of the probe control

CYP3A4 = biological target: T3, CYP3A4 (Homo sapiens, UniProt P08684); test: Cytochrome profiling CYP3A4 (baculosomes); assay type: in vitro ADME; conditions: probe fluorogenic probe substrate (not named), 10 μM substrate
T3 construct: host or cells: insect cells infected with recombinant baculovirus (microsomes)
T3 sequence (P08684 whole entry): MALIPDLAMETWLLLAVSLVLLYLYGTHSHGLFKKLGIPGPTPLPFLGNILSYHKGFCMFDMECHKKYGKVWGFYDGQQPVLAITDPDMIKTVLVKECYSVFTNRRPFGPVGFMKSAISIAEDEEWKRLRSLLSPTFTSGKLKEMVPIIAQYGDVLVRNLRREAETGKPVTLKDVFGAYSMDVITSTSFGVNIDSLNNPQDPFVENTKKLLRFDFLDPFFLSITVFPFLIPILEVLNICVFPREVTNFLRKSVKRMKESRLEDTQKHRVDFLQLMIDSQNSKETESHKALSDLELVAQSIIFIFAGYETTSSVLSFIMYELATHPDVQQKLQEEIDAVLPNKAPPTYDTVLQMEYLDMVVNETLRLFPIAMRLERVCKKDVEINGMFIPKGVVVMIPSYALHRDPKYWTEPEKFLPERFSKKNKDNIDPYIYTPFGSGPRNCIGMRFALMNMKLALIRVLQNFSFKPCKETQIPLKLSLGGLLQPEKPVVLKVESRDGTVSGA
Text: as §1

Structure (SMILES) | IC50 (hP2X7R [1]) | Ki (hP2X7R [2]) [µM] | inhibition at 60 min, 1 μM (CYP2C19) [%] | inhibition at 60 min, 1 μM (CYP3A4) [%]
COc1ccc(Cl)c(C(=O)NCC23CC4CC(CC(F)(C4)C2)C3)c1 [Compound 3, 2-Chloro-N-((3-fluoroadamantan-1-yl)methyl)-5-methoxybenzamide] | 0.0174 ± 0.0029 µM | 0.0219 ± 0.0005 | 46.9 | 88.8
COc1ccc(Cl)c(C(=O)NCC23CC4CC(CC(C4)C2)C3)c1 [Compound 31, reference compound] | 0.026 µM and 0.0257 µM | 0.0085 | 84.4 | 84.4
COc1ccc(Cl)c(C(=O)NCC23CC4(F)CC(F)(CC(F)(C4)C2)C3)c1 [Compound 1, 2-Chloro-N-((3,5,7-trifluoroadamantan-1-yl)methyl)-5-methoxybenzamide] | – | – | 12.9 | 89.9
COc1ccc(Cl)c(C(=O)NCC23CC4CC(F)(CC(F)(C4)C2)C3)c1 [Compound 2, 2-Chloro-N-((3,5-difluoroadamantan-1-yl)methyl)-5-methoxybenzamide] | 0.01 ± 0.004 µM | 0.023 ± 0.005 | 1.5 | 89.9
